Measured values: PubChem BioAssay (NCI)
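Protocol summary: plate cells (96-well), add compound at 5 concentrations, incubate 48 h, interpolate endpoints linearly. Abbreviation: GI50, concentration required for 50% inhibition of growth. TGI: total growth inhibition.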

Tests used:
Assay in all cases: DTP human tumour cell line panel, 48 h
[1] = tested on: OVCAR-8 ovarian
[2] = tested on: IGROV1 ovarian
[3] = tested on: UO-31 renal
[4] = tested on: RPMI-8226 leukemia
[5] = tested on: EKVX NSCLC
[6] = tested on: LOX IMVI melanoma
[7] = tested on: HL-60(TB) leukemia
[8] = tested on: HCC-2998 colon
[9] = tested on: NCI-H23 lung
[10] = tested on: SK-MEL-28 melanoma

SMILES | TGI [1] [µM] | TGI [2] [µM] | TGI [3] [µM] | TGI [4] [µM] | TGI [5] [µM] | TGI [6] [µM] | TGI [7] [µM] | TGI [8] [µM] | TGI [9] [µM] | TGI [10] [µM] | GI50 [8] [µM] | GI50 [1] [µM] | GI50 [9] [µM] | GI50 [10] [µM] | GI50 [2] [µM] | GI50 [3] [µM] | GI50 [5] [µM] | GI50 [6] [µM] | GI50 [7] [µM] | GI50 [4] [µM]
Cc1cc(NS(=O)(=O)c2ccc(NC(=O)c3ccc(Cl)c4c(Nc5ccc(S(=O)(=O)Nc6cc(C)on6)cc5)c5ccccc5nc34)cc2)no1 | > 100 | 49.7 | 37.1 | 72.7 | 64.9 | 41.6 | 49.5 | – | – | – | – | – | – | – | – | – | – | – | – | –
O=NNc1ccc(-c2ccccc2)cn1 | > 100 | > 81.3 | 58 | – | > 51.2 | 28.8 | 51.9 | > 76.4 | 25.2 | > 80.1 | – | – | – | – | – | – | – | – | – | –
CC(C)(C)c1cc(C2c3cc4c(cc3OC(O)(CO)C2C(=O)O)OCO4)cc(C(C)(C)C)c1O (centres undefined) (tested in a mixture with another compound) | 33.9 | 48.6 | 26.6 | 22.7 | 50.5 | 29.1 | 38.2 | – | 29.6 | 28.7 | – | – | – | – | – | – | – | – | – | –
CC(C)(C)C1=CC(=N/N=c2\scc(-c3ccccc3)n2Cc2ccccc2)C=C(C(C)(C)C)C1=O | > 100 | – | > 100 | – | > 100 | > 100 | > 100 | > 100 | > 100 | > 100 | – | – | – | – | – | – | – | – | – | –
O=C(O)CCCN1C(=O)/C(=C/C(Cl)=C/c2ccccc2)SC1=S | 13.8 | 6.04 | 2.48 | – | 5.91 | 1.38 | 10.5 | 3.41 | 6.27 | 3.47 | 1.83 | 1.48 | 2.34 | 1.66 | 2.07 | 1.07 | 2.21 | 0.383 | 0.551 | –
COc1ccc2nc3cc(Cl)ccc3c(Sc3ccc(N)cc3)c2c1 | 23.8 | 32 | 22.7 | – | 25.4 | 20.9 | – | 25.1 | 27.9 | 29.6 | – | – | – | – | – | – | – | – | – | –
CC1=CC(=O)NP(=O)(Oc2ccc(Cl)cc2)N1 (centres undefined) | > 100 | > 100 | > 100 | > 100 | > 100 | > 100 | > 100 | – | > 100 | > 100 | – | – | – | – | – | – | – | – | – | –
COC(=O)CNC(=O)C(=O)c1c(O)c(O)c(C(C)C)c2cc(C)c(-c3c(C)cc4c(C(C)C)c(O)c(O)c(C(=O)C(=O)NCC(=O)OC)c4c3O)c(O)c12 | 8.4 | 8.94 | 6.04 | > 50 | 4.99 | 6.28 | – | 7.1 | 6.37 | 8.61 | 1.92 | 2.05 | 1.53 | 2 | 1.92 | 1.43 | 1.2 | 1.56 | – | 2.72
CC(=O)/C=C1\CC(=O)N(C)c2ccccc2N1 | > 100 | > 100 | > 100 | – | > 100 | > 100 | – | > 100 | > 100 | > 100 | – | – | – | – | – | – | – | – | – | –
O=S(=O)(F)Cc1ccccc1 | > 100 | > 100 | > 100 | > 100 | > 100 | > 100 | – | > 100 | > 100 | > 100 | – | – | – | – | – | – | – | – | – | –
COCN1COCN(C)C1=O | > 100 | > 100 | > 100 | > 100 | > 100 | > 100 | – | > 100 | > 100 | > 100 | – | – | – | – | – | – | – | – | – | –
COC1CCCc2c(OC(C)=O)ccc(OC(C)=O)c21 (centres undefined) | – | > 100 | > 100 | – | – | > 100 | > 100 | > 100 | > 100 | > 100 | – | – | – | – | – | – | – | – | – | –
O=C(O)c1cccc([As]=[As]c2cccc(C(=O)O)c2)c1 (centres undefined) | > 100 | > 100 | > 100 | 59.5 | > 100 | 69.6 | – | > 100 | > 100 | > 100 | – | – | – | – | – | – | – | – | – | –
CN(c1cccc(C(=O)O)c1)c1cc(O/N=[N+](\[O-])N(C)C)c([N+](=O)[O-])cc1[N+](=O)[O-] | > 100 | > 100 | > 100 | > 100 | > 100 | > 100 | > 100 | – | > 100 | > 100 | – | > 100 | > 100 | 85.1 | > 100 | > 100 | > 100 | 47.6 | 72.2 | > 100
O=CNC(Cc1cnc[nH]1)C(=O)O (centres undefined) | > 100 | > 100 | > 100 | > 100 | > 100 | > 100 | > 100 | – | > 100 | > 100 | – | – | – | – | – | – | – | – | – | –
CC(=O)OC1(Sc2ccccc2)CC2[C@H]3COC(C)(C)O[C@H]3CC[C@@]2(C)CC1=O (some centres undefined) | > 100 | > 100 | > 100 | 69.7 | > 100 | – | – | – | > 100 | > 100 | – | – | – | – | – | – | – | – | – | –
O=C(n1c2ccccc2c2n[nH]c(=S)nc21)C(F)(F)F | > 100 | > 100 | > 100 | – | > 100 | > 100 | – | > 100 | > 100 | > 100 | – | – | – | – | – | – | – | – | – | –
CC(NCCN(C)C)C1CCC2C3CCc4cc(O)ccc4C3CCC12C (centres undefined) | 11 | 17.2 | 3.76 | 7.35 | 17.7 | 4.75 | 4.15 | – | 16.5 | 5.29 | – | – | – | – | – | – | – | – | – | –
O=c1[nH]c2nc3ccccc3c(=O)n2nc1Cc1ccccc1 | > 100 | > 100 | > 100 | > 100 | > 100 | > 100 | – | > 100 | > 100 | > 100 | – | – | – | – | – | – | – | – | – | –
O=[N+]([O-])c1ccc(Sc2cccc[n+]2[O-])c2nonc12 | > 67.6 | 14.5 | 17.4 | > 100 | 31.7 | 11.7 | – | 16.9 | 26.8 | 6.31 | 4.58 | 9.93 | 7.97 | 2.47 | 3.21 | 5.24 | 9.59 | 3.28 | – | 2.12
N#CC1=C(N)NC(=O)C(C#N)C12Nc1ccccc1S2 (centres undefined) | > 100 | 88.4 | > 100 | > 100 | > 100 | > 100 | > 100 | – | > 100 | > 100 | – | 91.3 | 41.2 | > 100 | 18 | > 100 | > 100 | 80.1 | 91.6 | 43.2
N.N.N.N.N#N.N#N.[Cl-].[Os+6] | > 100 | > 100 | > 100 | > 100 | > 100 | > 100 | – | > 100 | > 100 | > 100 | > 100 | > 100 | > 100 | > 100 | > 100 | > 100 | > 100 | > 100 | – | > 100
Cc1cccc(NC(=O)c2c(N)[n+]([O-])c3ccccc3[n+]2[O-])c1 | 32.3 | 21.5 | 32.6 | – | 31.3 | – | 56.7 | – | 23.4 | 20.7 | – | – | – | – | – | – | – | – | – | –
Nc1nc(N)nc(CCCCc2nc(N)nc(N)n2)n1 | > 100 | > 100 | > 100 | > 100 | > 100 | > 100 | > 100 | – | > 100 | > 100 | – | – | – | – | – | – | – | – | – | –
O=C1c2ccccc2C(=O)N1c1ccc(Cc2ccc(N3C(=O)c4ccccc4C3=O)cc2)cc1 | > 100 | > 100 | > 100 | > 100 | > 100 | > 100 | – | > 100 | > 100 | > 100 | – | – | – | – | – | – | – | – | – | –
O=C(c1ccccc1)c1nc2c(Cl)ccc(Cl)c2cc1C(Br)Br | 7.59 | 12.4 | 2.56 | 2.2 | – | 3.07 | – | 4.92 | – | 0.637 | – | – | – | – | – | – | – | – | – | –
COC(=O)NC1(NC(=O)OC)NC(=O)c2ccccc2N1 | > 100 | > 100 | > 100 | – | > 100 | – | > 100 | > 100 | > 100 | > 100 | – | – | – | – | – | – | – | – | – | –
CN(C)CCNC(=O)c1ccc2c(c1)oc1cc3ccccc3c(=O)n12 | 42.5 | 26.4 | 30.8 | > 100 | 36.6 | 11 | 87.9 | – | > 100 | – | – | 19.4 | 31.8 | – | 10.6 | 15.1 | 18.1 | 1.91 | 23.8 | 31
Cc1nc2ccccc2c(=O)n1/N=C(\N=Nc1ccc(Cl)cc1)c1cccc(-c2ccco2)c1 | > 100 | > 100 | 43.1 | > 100 | > 100 | > 100 | 69.4 | – | 65.2 | 58.7 | – | – | – | – | – | – | – | – | – | –
Cn1c(=O)nc2n(-c3ccc(Br)cc3)c3ccccc3nc-2c1=O | 18.3 | 28 | 37.9 | 28.8 | 7.3 | – | – | 10.8 | 4.2 | – | – | – | – | – | – | – | – | – | – | –
